The values below come from ChEMBL document CHEMBL1201862, “PubChem BioAssay data set” (2004).

Among the test systems are 786-0; U-251; KM12; HCC 2998; CCRF-CEM; HL-60; RXF 393; SNB-78; NCI/ADR-RES; SN12C; K562; CAKI-1; MDA-N; OVCAR-4; MDA-MB-435; IGROV-1; A549; SF-295; LOX IMVI; MOLT-4.
What all share (test): growth of human tumour cells (NCI), 48 h

The structures appear in SMILES notation.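 Following 48 hours of exposure in 96-well plates, responses at five concentrations were used to interpolate endpoints linearly. Here, GI50 denotes the concentration required for 50% inhibition of growth.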 Active and inactive are the calls of the source. Cut-off read from the data, not from the text of the source: active = GI50 up to about 1.1 µM and inactive = higher.

On to `O=Nc1ccc(O)c2ncccc12`, for which the GI50 with 786-0 was 4.2 µM (inactive); with U-251 it was 3.31 µM (inactive); in the assay with KM12, 5.19 µM (inactive); in the assay on HCC 2998 it was 15.6 µM (inactive); in the assay on CCRF-CEM it was 0.611 µM (active); in the assay with HL-60 it was 0.581 µM (active). Moreover, the GI50 with RXF 393 is 1.67 µM (inactive); in the assay on SNB-78, 2.43 µM (inactive); in the assay on NCI/ADR-RES it was 3.85 µM (inactive); in the assay with SN12C, 8.18 µM (inactive); in the assay on K562, 0.711 µM (active); with CAKI-1, 16.3 µM (inactive). The GI50 with MDA-N was 1.75 µM (inactive); in the assay on OVCAR-4 it was 11.6 µM (inactive); in the assay with MDA-MB-435, 1.26 µM (inactive); in the assay with IGROV-1 it was 5.46 µM (inactive); in the assay with A549 it was 2.5 µM (inactive); in the assay on SF-295, 8.05 µM (inactive). In the assay with LOX IMVI, the GI50 is 3.89 µM (inactive).
Regarding `COc1ccc(/C=C2/CSC/C(=C/c3ccc(OC)c(OC)c3)C2=O)cc1OC`, the GI50 is 2.02 µM (inactive) with 786-0; 1.01 µM (active) in the assay on U-251; 0.798 µM (active) in the assay on KM12; 2.57 µM (inactive) in the assay on HCC 2998; 0.849 µM (active) in the assay on CCRF-CEM; 1.03 µM (active) with HL-60. Also, the GI50 in the assay with RXF 393 was 3.34 µM (inactive); with SNB-78 it was 2.12 µM (inactive); in the assay on NCI/ADR-RES it was 1.66 µM (inactive); in the assay with SN12C, 1.77 µM (inactive); in the assay with K562 it was 1.42 µM (inactive); in the assay on CAKI-1, 3.49 µM (inactive). Besides, the GI50 was 2.58 µM (inactive) in the assay with MDA-N; 1.71 µM (inactive) in the assay with OVCAR-4; 1.74 µM (inactive) in the assay on MOLT-4; 2.97 µM (inactive) in the assay with MDA-MB-435; 2.28 µM (inactive) in the assay on IGROV-1; 2.27 µM (inactive) in the assay with A549. Moreover, the GI50 in the assay with SF-295 was 2.44 µM (inactive); in the assay on LOX IMVI it was 1.27 µM (inactive).
As for `Cc1ccc(NC(=O)C(=O)C(C#N)c2ccccc2C)cc1C` (stereo not drawn), the GI50 was > 68.2 µM (inactive) in the assay on 786-0; > 77.3 µM (inactive) with U-251; > 100 µM (inactive) in the assay on KM12; > 54.3 µM (inactive) with HCC 2998; > 61.7 µM (inactive) in the assay on CCRF-CEM; > 54.1 µM (inactive) in the assay on HL-60. Besides, the GI50 was > 100 µM (inactive) in the assay with RXF 393; > 100 µM (inactive) in the assay with SNB-78; > 100 µM (inactive) in the assay on SN12C; > 44.9 µM (inactive) in the assay on K562; > 100 µM (inactive) in the assay on CAKI-1; > 100 µM (inactive) in the assay on OVCAR-4. Besides, the GI50 with MOLT-4 is > 100 µM (inactive); in the assay on IGROV-1, > 100 µM (inactive); with A549, > 91.6 µM (inactive); with SF-295 it was > 100 µM (inactive); with LOX IMVI, > 41.2 µM (inactive).
Regarding `O=C1C[C@H](c2ccc(O)c(O)c2)Oc2cc(O)cc(O)c21`, the GI50 in the assay on 786-0 is > 100 µM (inactive); with U-251, 82.4 µM (inactive); with KM12 it was 78.2 µM (inactive); in the assay on HCC 2998, > 100 µM (inactive); in the assay with CCRF-CEM, 31.2 µM (inactive); with HL-60, 30.6 µM (inactive). Further, the GI50 in the assay on RXF 393, in the assay on SNB-78, in the assay on SN12C, in the assay with K562, with CAKI-1 and in the assay with OVCAR-4 was > 100 µM (inactive) throughout. In addition, the GI50 in the assay on MOLT-4 is 74.5 µM (inactive); with IGROV-1 it was > 100 µM (inactive); in the assay with A549 it was > 100 µM (inactive); with SF-295, > 100 µM (inactive); with LOX IMVI, > 100 µM (inactive).
Turning to `O/N=C1/C(=C/c2ccc(Oc3ccccc3)cc2)CCCC1C(NO)c1ccc(Oc2ccccc2)cc1` (stereo not drawn), the GI50 is 28.6 µM (inactive) in the assay on 786-0; 51.2 µM (inactive) with U-251; 22.3 µM (inactive) in the assay with KM12; 32.5 µM (inactive) in the assay on HCC 2998; 12.2 µM (inactive) in the assay with CCRF-CEM; 8.51 µM (inactive) in the assay with HL-60. Moreover, the GI50 in the assay on RXF 393 was 14.5 µM (inactive); in the assay with SNB-78 it was 34.8 µM (inactive); with SN12C, 22.8 µM (inactive); in the assay on K562, 19.8 µM (inactive); with CAKI-1 it was 33.2 µM (inactive); in the assay with OVCAR-4, 29.7 µM (inactive). The GI50 in the assay with MOLT-4 was 4.43 µM (inactive); with IGROV-1, 29.1 µM (inactive); with A549, 13.8 µM (inactive); in the assay with SF-295, 41.6 µM (inactive); with LOX IMVI, 13.6 µM (inactive).
In the case of `CCS/C(=N\c1ccccc1)SC`, the GI50 in the assay on 786-0, with U-251, in the assay on KM12, in the assay with HCC 2998, in the assay on CCRF-CEM and in the assay on HL-60 was > 100 µM (inactive) throughout. Moreover, the GI50 with RXF 393, in the assay on SNB-78, in the assay with SN12C, with K562, in the assay on CAKI-1 and in the assay on OVCAR-4 was > 100 µM (inactive) throughout. In addition, the GI50 in the assay on MOLT-4, in the assay on IGROV-1, in the assay with A549, with SF-295 and in the assay with LOX IMVI was > 100 µM (inactive) throughout.
Regarding `CC(=O)Oc1ccc(O)c2c1CCCC2`, the GI50 in the assay with 786-0 was > 100 µM (inactive); in the assay with U-251 it was > 78.3 µM (inactive); in the assay with KM12 it was > 100 µM (inactive); with HCC 2998, > 100 µM (inactive); in the assay with CCRF-CEM, 10.2 µM (inactive); with HL-60, 3.66 µM (inactive). Besides, the GI50 in the assay with RXF 393 was > 42.8 µM (inactive); in the assay on SNB-78, 19.8 µM (inactive); in the assay on SN12C, > 45.4 µM (inactive); in the assay with K562, 22.2 µM (inactive); in the assay on CAKI-1 it was 31.1 µM (inactive); in the assay with OVCAR-4, 19 µM (inactive). Besides, the GI50 in the assay on MOLT-4 is 12.1 µM (inactive); with IGROV-1, > 100 µM (inactive); in the assay with A549, > 100 µM (inactive); in the assay with SF-295, > 100 µM (inactive); with LOX IMVI it was 19.4 µM (inactive).
`C=C1C(=O)C=C2C=C3C(=O)C(C)(C)C[C@]3(O)C12C` (stereo partly drawn): the GI50 is 1.81 µM (inactive) in the assay on 786-0; 17.9 µM (inactive) with U-251; 16.2 µM (inactive) in the assay on KM12; 19.7 µM (inactive) in the assay on HCC 2998; 0.131 µM (active) with CCRF-CEM; 0.497 µM (active) in the assay on HL-60. For the same compound, the GI50 in the assay on RXF 393 is 1.48 µM (inactive); in the assay on SNB-78 it was 7.74 µM (inactive); in the assay with NCI/ADR-RES it was 28.8 µM (inactive); in the assay on SN12C it was 9.4 µM (inactive); with K562 it was 0.684 µM (active); in the assay with CAKI-1, 1.82 µM (inactive). Besides, the GI50 is 3.76 µM (inactive) with MDA-N; 3.43 µM (inactive) in the assay with OVCAR-4; 0.57 µM (active) in the assay on MOLT-4; 12.4 µM (inactive) in the assay on MDA-MB-435; 18 µM (inactive) in the assay with IGROV-1; 20 µM (inactive) in the assay with A549. Besides, the GI50 in the assay with SF-295 is 19 µM (inactive); in the assay on LOX IMVI, 5.14 µM (inactive).
On to `COC1=CC(C2c3cc4c(cc3[C@@H](Nc3ccc([N+](=O)[O-])cc3)C3COC(=O)[C@H]23)OCO4)=CC(=O)C1=O` (stereo partly drawn), for which the GI50 in the assay with 786-0 is 1.83 µM (inactive); in the assay on U-251 it was 1.35 µM (inactive); in the assay with KM12, 4.53 µM (inactive); with HCC 2998, 2.63 µM (inactive); with CCRF-CEM, 1.06 µM (active); with HL-60, 0.982 µM (active). For the same compound, the GI50 in the assay with RXF 393 was 17.9 µM (inactive); with SNB-78, 28 µM (inactive); with SN12C, 2 µM (inactive); with K562, 6.22 µM (inactive); in the assay on CAKI-1 it was 2.64 µM (inactive); in the assay with OVCAR-4, 59.3 µM (inactive). In addition, the GI50 with MOLT-4 is 0.217 µM (active); with IGROV-1, 13 µM (inactive); in the assay on A549, 0.923 µM (active); in the assay with SF-295, 2.09 µM (inactive); with LOX IMVI, 2.15 µM (inactive).
With `COC(=O)C[S+]([O-])c1ccccc1` (stereo not drawn), the GI50 was 26.7 µM (inactive) in the assay with 786-0; 24.4 µM (inactive) in the assay on U-251; 28.3 µM (inactive) in the assay with KM12; 25.3 µM (inactive) in the assay with HCC 2998; 7.67 µM (inactive) with CCRF-CEM; 15.5 µM (inactive) in the assay on HL-60. Also, the GI50 is 16.4 µM (inactive) in the assay on RXF 393; 33.5 µM (inactive) in the assay with SNB-78; 17.6 µM (inactive) in the assay on SN12C; 35.9 µM (inactive) with K562; 58.1 µM (inactive) with CAKI-1; 41.2 µM (inactive) in the assay on OVCAR-4. The GI50 was 10.8 µM (inactive) in the assay with MOLT-4; 19.2 µM (inactive) with IGROV-1; 26.8 µM (inactive) with A549; 36.6 µM (inactive) with SF-295; 21.8 µM (inactive) with LOX IMVI.
